Measured values reported in patent publication US4364953A, “2-0- and 5-0-Substituted 1.4;3.6-dianhydrohexitol mononitrates and pharmaceutical composition” (Firma Willmar Schwabe, priority 1980, dated 1982).
Like-named read-outs stand apart in the source and are kept apart here. Values belong to the molecule of their own block, whether it stands above or below them.

Assays:
in vivo = conditions: mouse, iv, Evaluated LD50 -range, mice, as hydrochloride
mongrel cats = assay: Heart-circulation effectiveness in narcotised mongrel cats, intraduodenal administration; conditions: 5 mg/kg intraduodenal, cat
narcotised guinea pigs = assay: Blood pressure experiments on the narcotised guinea pig (i.v.); conditions: for blood pressure afterwards: after administration; for blood pressure previously: before administration (baseline); for blood pressure-lowering effectiveness compared with ISMN and ISDN: in words, guinea pig i.v., Table III
[1] = test system: isolated guinea pig hearts; assay: Experiments on the Langendorff heart (isolated guinea pig hearts); conditions: Cavia porcellus, 25 μg./ml. test substance in 50 ml. tyrode solution, average of 3-6 hearts
female NMRI-albino mice = assay: Acute toxicity, intravenous, female NMRI-albino mice; conditions: for Frequency of death with an intravenous dose of 100 mg/kg: 100 mg/kg i.v. as hydrochloride in physiological saline; for Frequency of death with an intravenous dose of 100 mg/kg / Frequency of death with an intravenous dose of 200 mg/kg: death within 24 hours, dead/treated; for Frequency of death with an intravenous dose of 200 mg/kg: 200 mg/kg i.v. as hydrochloride in physiological saline
[2] = test system: isolated rat aorta preparations
[3] = 0 min (baseline), average ± standard error, 6 animals
[4] = read-out: flowthrough, percentage change in comparison with the initial value
[5] = read-out: frequency, percentage change in comparison with the initial value
[6] = read-out: inotropism, percentage change in comparison with the initial value
[7] = read-out: noradrenaline spasm, […]
[8] = read-out: potassium chloride spasm, […]

SMILES: O=C(O[C@@H]1CO[C@H]2[C@@H]1OC[C@@H]2O[N+](=O)[O-])c1cccnc1 [Example 5b, 1.4;3.6-Dianhydro-D-glucitol 2-nitrate 5-nicotinate]
LD50 at 24 h (in vivo): > 100 mg/kg
blood pressure (mongrel cats; [3]): 123.5 ± 7.3 mm.Hg
dp/dt (inotropism) (mongrel cats; [3]): 10625 ± 2083 mm.sec.
heart frequency (mongrel cats; [3]): 211.5 ± 19.3 min⁻¹
blood pressure (mongrel cats; 10 min after admin.): 98.3 ± 6.2 mm.Hg
dp/dt (inotropism) (mongrel cats; 10 min after admin.): 8050 ± 1204 mm.sec.
heart frequency (mongrel cats; 10 min after admin.): 209.5 ± 19.2 min⁻¹
blood pressure Δ (mongrel cats; 10 min versus 0 min): -25.2 mm.Hg
dp/dt Δ (mongrel cats; 10 min versus 0 min): -2575 mm.sec.
blood pressure (mongrel cats; 30 min after admin.): 94.8 ± 7.2 mm.Hg
dp/dt (inotropism) (mongrel cats; 30 min after admin.): 7975 ± 1216 mm.sec.
heart frequency (mongrel cats; 30 min after admin.): 212.5 ± 21.6 min⁻¹
blood pressure Δ (mongrel cats; 30 min versus 0 min): -28.7 mm.Hg
dp/dt Δ (mongrel cats; 30 min versus 0 min): -2650 mm.sec.
blood pressure (mongrel cats; 60 min after admin.): 93.8 ± 7.8 mm.Hg
dp/dt (inotropism) (mongrel cats; 60 min after admin.): 8275 ± 309 mm.sec.
heart frequency (mongrel cats; 60 min after admin.): 225.0 ± 16.2 min⁻¹
blood pressure Δ (mongrel cats; 60 min versus 0 min): -29.7 mm.Hg
dp/dt Δ (mongrel cats; 60 min versus 0 min): -2350 mm.sec.
blood pressure (mongrel cats; 120 min after admin.): 101.3 ± 11.2 mm.Hg
dp/dt (inotropism) (mongrel cats; 120 min after admin.): 7500 ± 1022 mm.sec.
heart frequency (mongrel cats; 120 min after admin.): 228.0 ± 15.6 min⁻¹
blood pressure Δ (mongrel cats; 120 min versus 0 min): -22.2 mm.Hg
dp/dt Δ (mongrel cats; 120 min versus 0 min): -3125 mm.sec.
blood pressure Δ (narcotised guinea pigs; 0.25 mg/kg i.v.): -7.70 mm.Hg
blood pressure afterwards (narcotised guinea pigs; 0.25 mg/kg i.v.): 55.00 ± 1.00 mm.Hg
blood pressure previously (narcotised guinea pigs; 0.25 mg/kg i.v.): 62.70 ± 3.00 mm.Hg
blood pressure Δ (narcotised guinea pigs; 1.00 mg/kg i.v.): -18.00 mm.Hg
blood pressure afterwards (narcotised guinea pigs; 1.00 mg/kg i.v.): 44.30 ± 0.90 mm.Hg
blood pressure previously (narcotised guinea pigs; 1.00 mg/kg i.v.): 62.30 ± 4.10 mm.Hg
blood pressure Δ (narcotised guinea pigs; 2.50 mg/kg i.v.): -28.00 mm.Hg
blood pressure afterwards (narcotised guinea pigs; 2.50 mg/kg i.v.): 33.30 ± 0.70 mm.Hg
blood pressure previously (narcotised guinea pigs; 2.50 mg/kg i.v.): 61.30 ± 4.90 mm.Hg
blood pressure-lowering effectiveness compared with ISMN and ISDN (narcotised guinea pigs): actions similar to those of ISDN
activation at 25 µg/mL [1, 4]: 23.6%
activation at 25 µg/mL [1, 5]: -9.13%
activation at 25 µg/mL [1, 6]: 15.8%
Frequency of death with an intravenous dose of 100 mg/kg (female NMRI-albino mice): 0/6
IC50 [2, 7]: 6.2 µM
IC50 [2, 8]: 22.5 µM

SMILES: O=C(O[C@H]1CO[C@H]2[C@@H]1OC[C@H]2O[N+](=O)[O-])c1cccnc1 [Example 7b, 1.4;3.6-Dianhydro-D-glucitol 2-nicotinate 5-nitrate]
LD50 at 24 h (in vivo): > 200 mg/kg
Frequency of death with an intravenous dose of 200 mg/kg (female NMRI-albino mice): 0/6
IC50 [2, 7]: 20 µM
IC50 [2, 8]: 44 µM

SMILES: O=C(O[C@@H]1CO[C@H]2[C@@H]1OC[C@H]2O[N+](=O)[O-])c1cccnc1 [Example 8, 1.4;3.6-Dianhydro-D-mannitol 2-nitrate 5-nicotinate]
LD50 at 24 h (in vivo): < 200 mg/kg
Frequency of death with an intravenous dose of 100 mg/kg (female NMRI-albino mice): 0/6
Frequency of death with an intravenous dose of 200 mg/kg (female NMRI-albino mice): 3/3
Evaluated LD50 -range (female NMRI-albino mice; i.v., mice, as hydrochloride, 24 hours, 1440 min): > 100 mg/kg

IC50 [2, 7]: 0.14 µM
IC50 [2, 8]: 3.18 µM
SMILES: O=[N+]([O-])O[C@H]1CO[C@H]2[C@@H]1OC[C@@H]2Oc1ccc(Cl)cc1 [Example 1c, 5-O-(4-Chlorophenyl)-1.4;3.6-dianhydro-L-iditol 2-nitrate]
blood pressure Δ (narcotised guinea pigs; 0.25 mg/kg i.v.): -1.60 mm.Hg
blood pressure afterwards (narcotised guinea pigs; 0.25 mg/kg i.v.): 59.70 ± 2.40 mm.Hg
blood pressure previously (narcotised guinea pigs; 0.25 mg/kg i.v.): 61.30 ± 2.60 mm.Hg
blood pressure Δ (narcotised guinea pigs; 1.00 mg/kg i.v.): -15.00 mm.Hg
blood pressure afterwards (narcotised guinea pigs; 1.00 mg/kg i.v.): 46.90 ± 1.20 mm.Hg
blood pressure previously (narcotised guinea pigs; 1.00 mg/kg i.v.): 61.90 ± 1.90 mm.Hg
blood pressure Δ (narcotised guinea pigs; 2.50 mg/kg i.v.): -23.00 mm.Hg
blood pressure afterwards (narcotised guinea pigs; 2.50 mg/kg i.v.): 37.60 ± 1.00 mm.Hg
blood pressure previously (narcotised guinea pigs; 2.50 mg/kg i.v.): 60.60 ± 1.80 mm.Hg
activation at 25 µg/mL [1, 4]: 19.8%
activation at 25 µg/mL [1, 5]: 2.89%
activation at 25 µg/mL [1, 6]: 12.2%

SMILES: O=C(O[C@H]1CO[C@H]2[C@@H]1OC[C@@H]2O[N+](=O)[O-])c1cccnc1 [Example 2b, 1.4;3.6-Dianhydro-L-iditol 2-nitrate 5-nicotinate]
LD50 at 24 h (in vivo): ≥ 200 mg/kg
blood pressure Δ (narcotised guinea pigs; 0.25 mg/kg i.v.): -11.40 mm.Hg
blood pressure afterwards (narcotised guinea pigs; 0.25 mg/kg i.v.): 47.30 ± 2.60 mm.Hg
blood pressure previously (narcotised guinea pigs; 0.25 mg/kg i.v.): 58.70 ± 4.30 mm.Hg
blood pressure Δ (narcotised guinea pigs; 1.00 mg/kg i.v.): -15.60 mm.Hg
blood pressure afterwards (narcotised guinea pigs; 1.00 mg/kg i.v.): 42.70 ± 1.80 mm.Hg
blood pressure previously (narcotised guinea pigs; 1.00 mg/kg i.v.): 58.30 ± 2.00 mm.Hg
blood pressure Δ (narcotised guinea pigs; 2.50 mg/kg i.v.): -20.70 mm.Hg
blood pressure afterwards (narcotised guinea pigs; 2.50 mg/kg i.v.): 33.00 ± 1.00 mm.Hg
blood pressure previously (narcotised guinea pigs; 2.50 mg/kg i.v.): 53.70 ± 3.30 mm.Hg
blood pressure-lowering effectiveness compared with ISMN and ISDN (narcotised guinea pigs): actions similar to those of ISDN
activation at 25 µg/mL [1, 4]: 35.4%
activation at 25 µg/mL [1, 5]: 0%
activation at 25 µg/mL [1, 6]: 3.36%
Frequency of death with an intravenous dose of 100 mg/kg (female NMRI-albino mice): 0/6
Frequency of death with an intravenous dose of 200 mg/kg (female NMRI-albino mice): 2/6
IC50 [2, 7]: 0.28 µM
IC50 [2, 8]: 3.1 µM

IC50 [2, 7]: 2.2 µM
IC50 [2, 8]: 2.8 µM
SMILES: CS(=O)(=O)O[C@@H]1CO[C@H]2[C@@H]1OC[C@@H]2O[N+](=O)[O-] [Example 4, 1.4;3.6-Dianhydro-D-glucitol 2-nitrate 5-methanesulphonate]
activation at 25 µg/mL [1, 4]: 44.3%
activation at 25 µg/mL [1, 5]: 0%
activation at 25 µg/mL [1, 6]: 0%
